ChEMBL document CHEMBL3044535, “Pharmacological profile of green tea and its polyphenols: a review” (Med Chem Res, 2012)
≈ marks a conversion by molar mass, not a printed value.

How the values were obtained:
[1] = target: Urease subunit alpha/Urease subunit beta (Helicobacter pylori (strain ATCC 700392 / 26695) (Campylobacterpylori), UniProt P69996); assay: Inhibition of Helicobacter pylori urease; assay type: protein-complex assay
[2] = tested on: SH-SY5Y; assay: Neuroprotective activity in Homo sapiens (human) SH-SY5Y cells assessed as increase in non amyloidogenic soluble form of amyloid precursor protein secretion at 0.1 to 10 uM after 2 hr by immunoblot analysis relative to control; assay type: functional
[3] = tested on: SK-OV-3; assay: Downregulation of bax expression in Homo sapiens (human) SKOV3 cells at 25 uM after 48 hr by Western blot analysis relative to control; assay type: functional
[4] = tested on: PC-12; assay: Neuroprotective activity in rat PC12 cells assessed as increase in non amyloidogenic soluble form of amyloid precursor protein secretion at 0.1 to 10 uM after 2 hr by immunoblot analysis relative to control; assay type: functional
[5] = tested on: MDA-MB-468; assay: Cytotoxicity against ER-negative Homo sapiens (human) MDA-MB-468 cells assessed as growth inhibition at 5 to 80 ug/ml after 24 to 72 hr by MTT assay; assay type: functional
[6] = tested on: SK-OV-3; assay: Downregulation of CDK4 expression in Homo sapiens (human) SKOV3 cells at 25 uM after 48 hr by Western blot analysis relative to control; assay type: functional
[7] = tested on: Epidermal microsome; assay: Antioxidant activity in Homo sapiens (human) epidermal microsomal fractions assessed as inhibition of UV-induced lipid peroxidation measured at 6 to 48 hr; assay type: functional; details: Skin epidermis, dose or concentration not given here
[8] = tested on: Skin epidermis; assay: Antioxidant activity in Homo sapiens (human) epidermis assessed as inhibition of UV-induced hydrogen peroxide production administered before UV induction at 48 hr by DHR assay; assay type: functional
[9] = tested on: Dermis; assay: Antioxidant activity in Homo sapiens (human) dermis cytosolic form assessed as inhibition of UV-induced nitric oxide production administered before UV induction at 48 hr by Griess assay; assay type: functional
[10] = tested on: MDA-MB-468; assay: Cytotoxicity against ER-negative Homo sapiens (human) MDA-MB-468 cells assessed as inhibition of cell viability at 5 to 80 ug/ml after 24 to 72 hr by MTT assay; assay type: functional
[11] = tested on: SK-OV-3; assay: Downregulation of retinoblastoma expression in Homo sapiens (human) SKOV3 cells at 25 uM after 48 hr by Western blot analysis relative to control; assay type: functional
[12] = tested on: Stenotrophomonas maltophilia; assay: Antibacterial activity against Stenotrophomonas maltophilia clinical isolate by agar dilution method; assay type: functional
[13] = tested on: SK-OV-3; assay: Downregulation of Bcl-XL expression in Homo sapiens (human) SKOV3 cells at 25 uM after 48 hr by Western blot analysis relative to control; assay type: functional
[14] = tested on: Skin epidermis; assay: Antioxidant activity in Homo sapiens (human) epidermis cytosolic form assessed as inhibition of UV-induced nitric oxide production administered before UV induction at 48 hr by Griess assay; assay type: functional
[15] = tested on: Stenotrophomonas maltophilia; assay: Bactericidal activity against Stenotrophomonas maltophilia clinical isolate; assay type: functional
[16] = tested on: SK-OV-3; assay: Downregulation of cyclin D1 expression in Homo sapiens (human) SKOV3 cells at 25 uM after 48 hr by Western blot analysis relative to control; assay type: functional
[17] = tested on: SK-OV-3; assay: Downregulation of p21 expression in Homo sapiens (human) SKOV3 cells at 25 uM after 48 hr by Western blot analysis relative to control; assay type: functional
[18] = tested on: Stenotrophomonas maltophilia; assay: Antibacterial activity against Stenotrophomonas maltophilia clinical isolate by broth macrodilution method; assay type: functional
[19] = tested on: Dermis; assay: Antioxidant activity in Homo sapiens (human) dermis assessed as inhibition of UV-induced hydrogen peroxide production administered before UV induction at 48 hr by DHR assay; assay type: functional

Urease subunit alpha/Urease subunit beta, sequence (P69996 whole entry): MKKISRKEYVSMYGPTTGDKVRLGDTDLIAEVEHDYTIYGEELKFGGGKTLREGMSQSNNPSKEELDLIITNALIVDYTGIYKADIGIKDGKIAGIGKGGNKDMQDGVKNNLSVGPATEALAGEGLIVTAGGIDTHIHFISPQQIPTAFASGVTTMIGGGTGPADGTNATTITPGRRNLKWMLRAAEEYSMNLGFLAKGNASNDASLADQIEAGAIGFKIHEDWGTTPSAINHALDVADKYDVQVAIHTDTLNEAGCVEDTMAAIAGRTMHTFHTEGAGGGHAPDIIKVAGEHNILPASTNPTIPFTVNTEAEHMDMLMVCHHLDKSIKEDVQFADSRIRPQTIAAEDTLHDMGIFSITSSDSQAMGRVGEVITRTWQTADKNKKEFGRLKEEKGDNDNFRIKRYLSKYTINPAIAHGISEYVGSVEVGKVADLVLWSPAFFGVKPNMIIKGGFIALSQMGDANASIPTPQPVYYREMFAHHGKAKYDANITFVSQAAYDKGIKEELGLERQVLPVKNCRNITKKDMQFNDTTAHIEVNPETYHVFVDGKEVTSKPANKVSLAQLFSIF
Urease subunit alpha/Urease subunit beta, sequence (P14916 whole entry, further chain): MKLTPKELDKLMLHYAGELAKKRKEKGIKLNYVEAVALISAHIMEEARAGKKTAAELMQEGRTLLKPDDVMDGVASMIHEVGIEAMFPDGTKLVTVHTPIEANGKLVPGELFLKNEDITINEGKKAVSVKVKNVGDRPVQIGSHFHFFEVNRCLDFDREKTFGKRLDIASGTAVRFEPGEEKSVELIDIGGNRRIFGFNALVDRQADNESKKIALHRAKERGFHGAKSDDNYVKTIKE

Oc1cc(O)c2c(c1)O[C@H](c1ccc(O)c(O)c1)[C@@H](O)C2 [CATECHIN]
IC50 [1]: 44.8 µM

O=C(O[C@@H]1Cc2c(O)cc(O)cc2O[C@@H]1c1cc(O)c(O)c(O)c1)c1cc(O)c(O)c(O)c1 [EPIGALOCATECHIN GALLATE]
fold change (FC) [2]: 6 | fold change (FC) [3]: >2 | fold change (FC) [4]: 6 | growth inhibition (GI) [5]: 15% | fold change (FC) [6]: >2 | inhibition [7]: 41% | inhibition (INH) [8]: 30% | inhibition (INH) [9]: 30% | inhibition (INH) [10]: 3% | fold change (FC) [11]: >2 | MIC50 [12]: 256 µg/mL (≈ 558 µM) | MIC90 [12]: 256 µg/mL (≈ 558 µM) | fold change (FC) [13]: >2 | inhibition (INH) [14]: 30% | MIC50 [15]: 512 µg/mL (≈ 1120 µM) | MIC90 [15]: 512 µg/mL (≈ 1120 µM) | fold change (FC) [16]: >2 | fold change (FC) [17]: >2 | MIC50 [18]: 512 µg/mL (≈ 1120 µM) | MIC90 [18]: 512 µg/mL (≈ 1120 µM) | inhibition (INH) [19]: 30%
